Where a chain is given by its changes, count along the chain named. Where a SMILES comes first, the peptide text is derived from it. Bridges are numbered along the chain shown (N, C = ends).
What was measured:
Experiment in all cases: cAMP accumulation
Type in all cases: cell-based
hCTR K366A = molecular target: T1, hCTR K366A (Homo sapiens, UniProt P30988, K366A); conditions: mean ± S.E.M.; for Emax: cAMP maximal response, SEM; for EC50: cAMP, CV1-FlpIn cells, 30 min, IBMX
T1 construct: c-Myc (N); expressed in transfected cells
T1 sequence (P30988 25-474 K366A): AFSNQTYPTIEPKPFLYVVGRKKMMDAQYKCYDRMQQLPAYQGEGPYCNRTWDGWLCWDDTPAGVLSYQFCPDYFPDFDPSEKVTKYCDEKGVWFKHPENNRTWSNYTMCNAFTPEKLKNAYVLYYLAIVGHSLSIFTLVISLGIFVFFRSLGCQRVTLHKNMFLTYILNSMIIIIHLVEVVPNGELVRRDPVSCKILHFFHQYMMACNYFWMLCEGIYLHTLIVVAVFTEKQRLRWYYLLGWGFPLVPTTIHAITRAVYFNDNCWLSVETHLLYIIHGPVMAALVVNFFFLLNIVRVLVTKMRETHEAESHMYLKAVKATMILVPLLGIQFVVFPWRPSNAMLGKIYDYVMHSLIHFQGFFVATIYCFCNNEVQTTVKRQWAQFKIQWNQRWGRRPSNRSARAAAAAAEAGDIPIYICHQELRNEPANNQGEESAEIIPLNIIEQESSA
Outline: (§1)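 Plated cells were incubated overnight and then challenged with rising ligand concentrations for 30 min alongside IBMX. Medium was replaced by absolute ethanol, which was evaporated at room temperature before cAMP determination. Values are normalized to 100 μM forskolin.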

hCTR N365A = molecular target: T2, hCTR N365A (Homo sapiens, UniProt P30988, N365A); conditions: mean ± S.E.M.; for Emax: cAMP maximal response, SEM; for EC50: cAMP, CV1-FlpIn cells, 30 min, IBMX
T2 construct: c-Myc (N); expressed in transfected cells
T2 sequence (P30988 25-474 N365A): T1 sequence (P30988 25-474 K366A) with N341A, A342K
Outline: as §1

hCTR T280A = molecular target: T3, hCTR T280A (Homo sapiens, UniProt P30988, T280A); conditions: mean ± S.E.M.; for Emax: cAMP maximal response, SEM; for EC50: cAMP, CV1-FlpIn cells, 30 min, IBMX
T3 construct: expressed in transfected cells
T3 sequence (P30988 25-474 T280A): T1 sequence (P30988 25-474 K366A) with T256A, A342K
Outline: as §1

hCTR T295A = molecular target: T4, hCTR T295A (Homo sapiens, UniProt P30988, T295A); conditions: mean ± S.E.M.; for Emax: cAMP maximal response, SEM; for EC50: cAMP, CV1-FlpIn cells, 30 min, IBMX
T4 construct: c-Myc (N); expressed in transfected cells
T4 sequence (P30988 25-474 T295A): T1 sequence (P30988 25-474 K366A) with T271A, A342K
Outline: as §1

hCTR W290A = molecular target: T5, hCTR W290A (Homo sapiens, UniProt P30988, W290A); conditions: mean ± S.E.M.; for Emax: cAMP maximal response, SEM
T5 construct: c-Myc (N); expressed in transfected cells
T5 sequence (P30988 25-474 W290A): T1 sequence (P30988 25-474 K366A) with W266A, A342K
Outline: as §1

| Structure (SMILES) | Emax (hCTR K366A) [%] | Emax (hCTR N365A) [%] | Emax (hCTR T280A) [%] | Emax (hCTR T295A) [%] | Emax (hCTR W290A) [%] | EC50 (hCTR K366A) [nM] | EC50 (hCTR N365A) [nM] | EC50 (hCTR T280A) [nM] | EC50 (hCTR T295A) [nM] | EC50 (hCTR W290A; cAMP, CV1-FlpIn cells, 30 min, IBMX) [nM] |
| --- | --- | --- | --- | --- | --- | --- | --- | --- | --- | --- |
| CC(C)C[C@H](NC(=O)[C@H](CC(N)=O)NC(=O)[C@H](CC(N)=O)NC(=O)[C@H](CO)NC(=O)[C@H](CO)NC(=O)[C@H](CCCNC(=N)N)NC(=O)[C@@H](NC(=O)[C@H](CC(C)C)NC(=O)[C@H](Cc1ccccc1)NC(=O)[C@H](CC(N)=O)NC(=O)[C@H](C)NC(=O)[C@H](CC(C)C)NC(=O)[C@H](CCCNC(=N)N)NC(=O)[C@H](CCC(N)=O)NC(=O)[C@@H](NC(=O)[C@H](C)NC(=O)[C@@H]1CSSC[C@H](NC(=O)[C@@H](N)CCCCN)C(=O)N[C@@H](CC(N)=O)C(=O)N[C@@H]([C@@H](C)O)C(=O)N[C@@H](C)C(=O)N[C@@H]([C@@H](C)O)C(=O)N1)[C@@H](C)O)C(C)C)C(=O)NCC(=O)N1CCC[C@H]1C(=O)N[C@H](C(=O)N[C@@H](CC(C)C)C(=O)N1CCC[C@H]1C(=O)N1CCC[C@H]1C(=O)N[C@H](C(=O)N[C@@H](CC(N)=O)C(=O)N[C@H](C(=O)NCC(=O)N[C@@H](CO)C(=O)N[C@@H](CC(N)=O)C(=O)N[C@H](C(=O)N[C@@H](Cc1ccc(O)cc1)C(N)=O)[C@@H](C)O)C(C)C)[C@@H](C)O)C(C)C [rAmy] | 71 ± 7 | 72 ± 8 | 69 ± 8 | 74 ± 19 | 72 ± 26 | – | – | – | – | – |
| CC[C@H](C)[C@H](NC(=O)[C@H](C)NC(=O)[C@@H](NC(=O)[C@H](CCC(N)=O)NC(=O)[C@@H]1CCCN1C(=O)[C@H](Cc1ccccc1)NC(=O)[C@@H](NC(=O)[C@H](Cc1c[nH]cn1)NC(=O)[C@H](Cc1ccccc1)NC(=O)[C@H](CCCCN)NC(=O)[C@H](CC(N)=O)NC(=O)[C@H](Cc1ccccc1)NC(=O)[C@H](CC(=O)O)NC(=O)[C@H](CCC(N)=O)NC(=O)[C@@H](NC(=O)[C@H](Cc1ccc(O)cc1)NC(=O)[C@@H](NC(=O)CNC(=O)[C@H](CC(C)C)NC(=O)[C@H](CCSC)NC(=O)[C@@H]1CSSC[C@H](N)C(=O)NCC(=O)N[C@@H](CC(N)=O)C(=O)N[C@@H](CC(C)C)C(=O)N[C@@H](CO)C(=O)N[C@@H]([C@@H](C)O)C(=O)N1)[C@@H](C)O)[C@@H](C)O)[C@@H](C)O)[C@@H](C)O)C(=O)NCC(=O)N[C@H](C(=O)NCC(=O)N[C@@H](C)C(=O)N1CCC[C@H]1C(N)=O)C(C)C [hCT] | 74 ± 3 | 96 ± 4 | 97 ± 6 | 127 ± 11 | 164 ± 20 | – | – | – | – | – |
| CC(C)C[C@H](NC(=O)CNC(=O)[C@H](C)NC(=O)[C@H](CC(C)C)NC(=O)[C@H](CCCNC(=N)N)NC(=O)[C@H](Cc1cnc[nH]1)NC(=O)[C@@H](NC(=O)[C@@H](NC(=O)[C@@H]1CSSC[C@H](NC(=O)[C@H](C)N)C(=O)N[C@@H](CC(=O)O)C(=O)N[C@@H]([C@@H](C)O)C(=O)N[C@@H](C)C(=O)N[C@@H]([C@@H](C)O)C(=O)N1)C(C)C)[C@@H](C)O)C(=O)N[C@@H](CC(C)C)C(=O)N[C@@H](CO)C(=O)N[C@@H](CCCNC(=N)N)C(=O)N[C@@H](CO)C(=O)NCC(=O)NCC(=O)N[C@H](C(=O)N[C@H](C(=O)N[C@@H](CCCCN)C(=O)N[C@@H](CC(N)=O)C(=O)N[C@@H](CC(N)=O)C(=O)N[C@@H](Cc1ccccc1)C(=O)N[C@H](C(=O)N1CCC[C@H]1C(=O)N[C@H](C(=O)N[C@@H](CC(N)=O)C(=O)N[C@H](C(=O)NCC(=O)N[C@@H](CO)C(=O)N[C@@H](CCCCN)C(=O)N[C@@H](C)C(=O)N[C@@H](Cc1ccccc1)C(N)=O)C(C)C)[C@@H](C)O)C(C)C)C(C)C)C(C)C [hαCGRP] | 73 ± 13 | 111 ± 13 | 107 ± 21 | 79 ± 20 | – | 5.37 | 15.5 | 3.31 | 107 | – |
| CC(C)C[C@H](NC(=O)[C@H](CCCCN)NC(=O)CNC(=O)[C@H](CC(C)C)NC(=O)[C@@H](NC(=O)[C@@H]1CSSC[C@H](N)C(=O)N[C@@H](CO)C(=O)N[C@@H](CC(N)=O)C(=O)N[C@@H](CC(C)C)C(=O)N[C@@H](CO)C(=O)N[C@@H]([C@@H](C)O)C(=O)N1)C(C)C)C(=O)N[C@@H](CO)C(=O)N[C@@H](CCC(N)=O)C(=O)N[C@@H](CCC(=O)O)C(=O)N[C@@H](CC(C)C)C(=O)N[C@@H](Cc1c[nH]cn1)C(=O)N[C@@H](CCCCN)C(=O)N[C@@H](CC(C)C)C(=O)N[C@@H](CCC(N)=O)C(=O)N[C@H](C(=O)N[C@@H](Cc1ccc(O)cc1)C(=O)N1CCC[C@H]1C(=O)N[C@@H](CCCNC(=N)N)C(=O)N[C@H](C(=O)N[C@@H](CC(N)=O)C(=O)N[C@H](C(=O)NCC(=O)N[C@@H](CO)C(=O)NCC(=O)N[C@H](C(=O)N1CCC[C@H]1C(N)=O)[C@@H](C)O)[C@@H](C)O)[C@@H](C)O)[C@@H](C)O [sCT] | 81 ± 5 | 94 ± 5 | 107 ± 14 | 138 ± 13 | 154 ± 7 | – | – | – | – | – |
| CSCC[C@H](NC(=O)CNC(=O)[C@H](CO)NC(=O)[C@H](Cc1ccccc1)NC(=O)[C@H](CCCNC(=N)N)NC(=O)[C@H](Cc1c[nH]cn1)NC(=O)[C@H](Cc1ccccc1)NC(=O)[C@H](CC(N)=O)NC(=O)[C@H](CC(N)=O)NC(=O)[C@H](CC(C)C)NC(=O)[C@H](CC(N)=O)NC(=O)[C@H](CCCNC(=N)N)NC(=O)[C@H](Cc1c[nH]c2ccccc12)NC(=O)[C@H](Cc1ccc(O)cc1)NC(=O)[C@H](C)NC(=O)[C@H](CO)NC(=O)[C@H](CC(C)C)NC(=O)[C@@H](NC(=O)[C@@H]1CSSC[C@H](N)C(=O)N[C@@H](CO)C(=O)N[C@@H](CC(N)=O)C(=O)N[C@@H](CC(C)C)C(=O)N[C@@H](CO)C(=O)N[C@@H]([C@@H](C)O)C(=O)N1)C(C)C)C(=O)NCC(=O)N[C@@H](Cc1ccccc1)C(=O)NCC(=O)N1CCC[C@H]1C(=O)N[C@@H](CCC(=O)O)C(=O)N[C@H](C(=O)N1CCC[C@H]1C(N)=O)[C@@H](C)O [pCT] (H-CSNLSTCVLSAYWRNLNNFHRFSGMGFGPETP-NH2; disulfide 1-7) | 80 ± 8 | 95 ± 5 | 113 ± 5 | 123 ± 8 | 113 ± 12 | 0.02 | 0.0316 | 0.0398 | 0.282 | 3.31 |

Reference: PMC5908784, “Extracellular loops 2 and 3 of the calcitonin receptor selectively modify agonist binding and efficacy” (Biochemical Pharmacology, 2018)
